Counter-ions that a name gives are not always drawn. Like-named read-outs stand apart in the source and are kept apart here.

Assay [1] deals with VSVΔ51. In kind it is cell-based, Vesicular stomatitis virus.
Assay [2] relates to VSVΔ51. Type of assay: cell-based, Vesicular stomatitis virus. The source holds these as a separate data set.
For assay [3], the system named is HSV-1 mutant N212. In kind it is cell-based, herpes simplex virus.
Assay [4] concerns Sindbis virus. Type of assay: cell-based.
For assay [5], the system named is E1A-deleted Ad5. In kind it is cell-based, adenovirus serotype 5.
Assay [6] deals with VSVΔ51. In kind it is cell-based, Vesicular stomatitis virus. This is another data set of the same source.
For assay [7], the system named is 786-0 cells. In kind it is cell-based, human.
Assay [8] concerns CT26WT cells. Type of assay: cell-based, murine.
Assay [9] has as its system B16F10 cells. In kind it is cell-based, murine.
Assay [10] relates to VSVΔ51. Type of assay: cell-based, Vesicular stomatitis virus. The source holds these as a separate data set.
The subject of assay [11] is VSVΔ51. Type of assay: cell-based, Vesicular stomatitis virus. The source holds these as a separate data set.
Assay [12] has as its system VSVΔ51. In kind it is cell-based, Vesicular stomatitis virus. The source holds these as a separate data set.
Assay [13] relates to VSVΔ51. In kind it is cell-based, Vesicular stomatitis virus. This is another data set of the same source.
Assay [14] relates to CT26WT tumors. To be noted: mouse, in vivo.
The test system of assay [15] is B16F10 tumors. To be noted: mouse, in vivo.
Assay [16] has as its system HT29 tumors. The note with it: mouse, in vivo.
In assay [17] the test system is STAT1. In kind it is cell-based, human.
The test system of assay [18] is STAT2. In kind it is cell-based, human.
In assay [19] the test system is IFITM1. Type of assay: cell-based, human.
In assay [20] the test system is VSV-viral proteins. Type of assay: cell-based, Vesicular stomatitis virus.
For assay [21], the system named is wild-type VSV (wtVSV). In kind it is cell-based, Vesicular stomatitis virus.
The test system of assay [22] is VSVΔ51. In kind it is cell-based, Vesicular stomatitis virus. This is another data set of the same source.
Assay [23] deals with wtVSV. In kind it is cell-based, Vesicular stomatitis virus.
The subject of assay [24] is VSVΔ51. In kind it is cell-based, Vesicular stomatitis virus. The source holds these as a separate data set.
The subject of assay [25] is STAT1. Type of assay: cell-based, human. The source holds these as a separate data set.
Assay [26] has as its system NF-κB subunit p65. Type of assay: cell-based, human.
Assay [27] has as its system VSVΔ51. In kind it is cell-based, Vesicular stomatitis virus. This is another data set of the same source.
In assay [28] the test system is replication incompetent lentivirus. In kind it is cell-based.

For `COC(=O)/C=C/C(=O)OC` [DMF, dimethyl fumarate], in assay [1], the “Virus-encoded GFP expression” value is “greatly enhanced”, the “increase of VSVΔ51 virus growth” value is “more than 100 fold”, the “infection of VSVΔ51” value was “enhanced infection” and the “pre-treatment time prior to infection at which the enhancing effect was observed” value was “up to 24 hours”. In assay [1], the “time post-infection of treatment at which the enhancing effect was observed” value is listed as “up to 8 hours” and the “viral output of VSVΔ51, growth curve at low MOI” value is given as “enhanced the viral output”. Also, the “VSVΔ51 infection in panel of cancer cell lines” value in assay [2] is “robustly enhanced infection”. Besides, in assay [3], the “viral output of oncolytic herpes virus” value was “improved viral output”. Also, the “viral output of Sindbis virus” value in assay [4] is “improved viral output”. Moreover, in assay [5], the “increase of luciferase transgene expression” value is reported as “up to 20 fold”. The “average plaque diameter of VSVΔ51” value in [6] is given as “substantially increased”. For the same compound, in assay [7], the “cell viability, combined treatment with VSVΔ51” value (from here on “cell viability … with VSVΔ51”) is reported as “synergistic decrease in cell viability”. Also, in [8], the “cell viability … with VSVΔ51” value is recorded as “synergistic decrease in cell viability”. Also, in [9], the “cell viability … with VSVΔ51” value is on record as “synergistic decrease in cell viability”. Moreover, the “virus growth in normal tissue cores” value in assay [10] was “did not increase virus growth”. Also, in assay [11], the “increase of VSVΔ51 infection ex vivo in primary human tumor samples” value is on record as greater than 10 fold. Further, the “VSVΔ51 infection in patient-derived cancer cell lines” value in [12] is given as “increased VSVΔ51 infection”. For the same compound, in assay [13], the “virus growth in human normal tissues” value was “did not improve virus growth”. For the same compound, in assay [14], the “challenge of cured mice with a foreign tumor” value was “grew 4T1 tumors at a similar rate as the naive mice”; the “mice with complete remission, combination therapy” value was “approximately 20%”; the “re-challenge of cured mice with the same cancer cells” value was “immune to re-challenge”; the “survival, combination therapy compared with either monotherapy” value (“survival … compared with either monotherapy” for short) is “significantly prolonged survival”. Besides, in assay [14], the “tumor progression, combination therapy DMF + VSVΔ51” value is reported as “considerable delay in tumor progression” and the “virus-associated luciferase gene expression in tumors” value was “enhanced virus-associated luciferase gene expression”. Also, in assay [15], the “mice with complete remission, combination therapy” value is “approximately 20%”; the “survival … compared with either monotherapy” value is “significantly prolonged survival”; the “tumor progression, combination therapy DMF + VSVΔ51” value is listed as “considerable delay in tumor progression”. In assay [16], the “survival … compared with either monotherapy” value is given as “significantly prolonged survival”; the “tumor progression, combination therapy DMF + VSVΔ51” value is on record as “considerable delay in tumor progression”; the “virus-associated luciferase gene expression in tumors” value is “enhanced virus-associated luciferase gene expression”. For the same compound, the “activation (phosphorylation) of STAT1” value in assay [17] was “decreased activation (phosphorylation)”. For the same compound, in assay [18], the “activation (phosphorylation) of STAT2” value is “decreased activation (phosphorylation)”. Further, the “expression levels of the antiviral protein IFITM1” value in assay [19] was “potently repressed”. Besides, the VSV-viral proteins result in [20] is “increased”. The “infection of 786-0 cells by wild-type VSV” value in assay [21] is “no impact on infection”. In addition, the “protective (suppressive) effect of VSVΔ51ΔG-infected cell supernatant on subsequent infection” value in assay [22] is recorded as “completely overcome this suppressive effect”. In addition, the “protective (suppressive) effect of VSVΔ51ΔG-infected cell supernatant on subsequent infection” value in assay [23] is on record as “completely overcome this suppressive effect”. Besides, the “antiviral effects of Type I IFN pretreatment on VSVΔ51 infection” value in [24] is “antagonized the antiviral effects”. In addition, the “STAT1 phosphorylation in cells conditioned with IFNβ” value in assay [25] was “inhibited STAT1 phosphorylation”. Besides, in [26], the “phosphorylation and translocation of NF-κB subunit p65 upon TNFα stimulation” value is “inhibits phosphorylation and translocation”; the “phosphorylation and translocation of NF-κB subunit p65 upon infection” value was “inhibits phosphorylation and translocation”.
`COC(=O)/C=C\C(=O)OC` [DMM, dimethyl maleate]: the “VSVΔ51 infection, spread, and oncolysis” value in [1] and in assay [27] was “robustly enhanced” each time.
On to `COC(=O)CCC(=O)OC` [DMS, dimethyl succinate], for which the “viral output of VSVΔ51” value in assay [1] is given as “no impact on viral output”.
Regarding `CCOC(=O)/C=C/C(=O)OCC` [DEF, diethyl fumarate], the “VSVΔ51 infection, spread, and oncolysis” value in assay [1] and in assay [27] was “robustly enhanced” throughout.
Regarding `COC(=O)/C=C/C(=O)O` [MMF, monomethyl fumarate], in assay [28], the “increase in lentivirus yield” value stood at 2.4 fold.
Consider `O=C(O)/C=C/C(=O)O` [FA, fumaric acid], for which, in assay [1], the “infection of VSVΔ51 / viral growth” value was “no impact on viral growth”.
As for `CCOC(=O)/C=C\C(=O)OCC` [DEM, diethyl maleate], the “VSVΔ51 infection, spread, and oncolysis” value in assay [1] and in [27] was “robustly enhanced” throughout. The “STAT1 phosphorylation in cells conditioned with IFNβ” value in [25] is on record as “inhibited STAT1 phosphorylation”.

For the origin of these results see patent US12440525B2 (priority 2017, dated 2025).
